Assay results published in patent US20220098162A1, “APHTHYLAMINE COMPOUND AND BIOLOGICALLY ACCEPTABLE SALT THEREOF, PREPARATION METHOD THEREFOR, AND APPLICATION THEREOF” (Henan Radiomedical Science and Technology Co., Ltd, priority 2019, published 2022).
Counter-ions that a name gives are not always drawn.

Key:
Type in all cases: cell-based
MCF-7 cells = assay: MTT experiment, MCF-7 cells; conditions: Homo sapiens, MCF7; MCF-7, MTT, 48 hours, hydrochloride salt
Procedure: (§1) Experiment on Inducing Apoptosis of Breast Cancer, Colon Cancer and Lung Cancer Cancer Cells
(§2) Method: collecting logarithmic growth phase MDA-MB-231, MCF-7, HCT-116, PC9-AR, PC9-GR, PC9 cells, counting, adjusting the cell suspension concentration to 50000 cells/mL, adding 100 ul cell suspension to each well, that is, 5000 cells per well, and adding the above cancer cells to the hydrochloride of the naphthylamine compounds of 1a and 3a of the invention, to enable the final concentration of the hydrochloride of the naphthylamine compound in the system to be several gradients of 0.1, 0.3, 1, 3, 10, 30, 100, 300 (μmol/L), and continuing culturing for 48 hours; after treating with drug, adding 50 μL of Thiazole Blue reagent (1 mg/mL) to each well, incubating at 37° C. for 4 hours, shaking the plate to discard the liquid in the well, draining the water, absorbing the remaining liquid with filter paper, and then adding 100 μL of dimethyl sulfoxide; reacting on a horizontal shaker for 7-8 minutes, until the blue-violet crystals are completely dissolved; reading the value with a microplate reader, measuring the OD value at the absorption wavelength of 570 nm, recording the result. […]

MDA-MB-231 cells = assay: MTT experiment, MDA-MB-231 cells; conditions: Homo sapiens; MDA-MB-231, MTT, 48 hours, hydrochloride salt
Procedure: as §1, §2

HCT-116 cells = assay: MTT experiment, HCT-116 cells; conditions: Homo sapiens; HCT-116, MTT, 48 hours, hydrochloride salt
Procedure: as §1, §2

PC9AR cells = assay: MTT experiment, PC9-AR cells; conditions: 48 hours, hydrochloride salt
Procedure: as §1, §2

PC9GR cells = assay: MTT experiment, PC9-GR cells; conditions: 48 hours, hydrochloride salt
Procedure: as §1, §2

PC9 cells = assay: MTT experiment, PC9 cells; conditions: Homo sapiens, PC-9, 48 hours, hydrochloride salt
Procedure: as §1, §2

p-STAT3 in HCC827 cells = assay: Westernblot experiment, STAT3 and p-STAT3 in IL-6 stimulated HCC827 cells; conditions: HCC827, 10, 30, 100 and 300 μmol/L, IL-6 30 ng/mL
Procedure: (1) Taking HCC827 cells in logarithmic growth phase, digesting them with trypsin, preparing a single cell suspension with a density of 300,000 cells/mL with RPMI-1640 medium containing 10% fetal bovine serum, and adding 2 mL of cell suspension to each well to inoculate a 6-well cell culture plate.
(2) Incubating in a 37° C., 5% CO2 incubator. After the cells adhere to the wall, adding the experimental group with different concentrations of the drug SMY002 (3a), and the concentration gradients are: 10, 30, 100 and 300 μmol/L; adding 30 μL of interleukin-6 (IL-6) one hour later at a concentration of […] to stimulate the cells, and the final concentration of interleukin-6 (IL-6) is 30 ng/mL.
(3) After continuing to culture for 0.5 h, lysing the cells with RIPA lysis buffer to collect proteins. […]
(4) Transferring the cell supernatant to a clean centrifuge tube. Dividing the cell supernatant into two parts: taking 5 μL and add it to a 1.5 mL centrifuge tube for BCA to measure the protein content, then adding 45 μL of 1× phosphate buffered saline (PBS) and mixing well for later use; quantitatively taking 140 μL of the remaining cell supernatant, adding 35 μL of 5×SDS loading buffer, boiling in boiling water for 8 minutes after mixing, and storing in a refrigerator at −20° C. after centrifugation. […]

Row | IC50 (MCF-7 cells) [nM] | IC50 (MDA-MB-231 cells) [nM] | IC50 (HCT-116 cells) [nM] | IC50 (PC9AR cells) [nM] | IC50 (PC9GR cells) [nM] | IC50 (PC9 cells) [nM] | Structure (SMILES) | amount of STAT3 protein expressed (Westernblot) (p-STAT3 in HCC827 cells) | expression of p-STAT3 (Westernblot) (p-STAT3 in HCC827 cells)
1 | 2040 | 1810 | 1980 | 655 | 472 | 473 | Nc1ccc(OCc2ccc(OCCN3CCCCC3)cc2)c2ccccc12 [SMY002 (3a), 4-(4-(2-(piperidin-1-yl)ethoxy)benzyloxy)-1-naphthylamine dihydrochloride] | remains unchanged | significantly inhibits
2 |  | 14900 | 25400 | 38500 | 30400 | 26600 | Nc1ccc(OC(=O)c2ccc(OCCN3CCCCC3)cc2)c2ccccc12 [SMY001 (1a), 4-(2-(piperidin-1-yl)ethoxy) benzoic acid-4-amino-1-naphthyl ester dihydrochloride] |  | 
